Measurements: PubChem BioAssay AID256 (DTP/NCI, 2004)
Where “and” joins values, the source holds several entries; their conditions need not be identical. Identical values can stand only once. Toxic doses and inconclusive results are not listed. The calls were made as follows: active = survival T/C of 150% or more; inactive = T/C below 125% in these data.

System: CD2F1 mice, L1210 leukemia ip, survival T/C
Experiment: NCI In Vivo Anticancer Drug Screen. Data for tumor model L1210 Leukemia (intraperitoneal) in CD2F1 (CDF1) mice
Details: higher = longer survival
Method in brief: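 Tumor-bearing mice (transplanted tumor) were split into treated and vehicle control groups, and the measured endpoint of each treated group was divided by that of its vehicle controls.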

[1] = endpoint: mean survival time, dose: 100.0 mg/kg/injection, schedule: Q04DX003 (ip), vehicle: saline with Tween-80
[2] = endpoint: mean survival time, dose: 100.0 mg/kg/injection, schedule: Q01DX001 (ip), vehicle: saline
[3] = endpoint: mean survival time, dose: 200.0 mg/kg/injection, schedule: Q01DX001 (ip), vehicle: saline
[4] = endpoint: mean survival time, dose: 400.0 mg/kg/injection, schedule: Q01DX001 (ip), vehicle: saline
[5] = endpoint: mean survival time, dose: 100.0 mg/kg/injection, schedule: Q01DX009 (ip), vehicle: saline with Tween-80
[6] = endpoint: mean survival time, dose: 200.0 mg/kg/injection, schedule: Q01DX009 (ip), vehicle: saline with Tween-80
[7] = endpoint: mean survival time, dose: 200.0 mg/kg/injection, schedule: Q04DX003 (ip), vehicle: saline with Tween-80
[8] = endpoint: mean survival time, dose: 400.0 mg/kg/injection, schedule: Q01DX009 (ip), vehicle: saline with Tween-80
[9] = endpoint: mean survival time, dose: 400.0 mg/kg/injection, schedule: Q04DX003 (ip), vehicle: saline with Tween-80
[10] = endpoint: mean survival time, dose: 50.0 mg/kg/injection, schedule: Q04DX002 (ip), vehicle: saline with Tween-80
[11] = endpoint: mean survival time, dose: 100.0 mg/kg/injection, schedule: Q04DX002 (ip), vehicle: saline with Tween-80
[12] = endpoint: mean survival time, dose: 200.0 mg/kg/injection, schedule: Q04DX002 (ip), vehicle: saline with Tween-80

Measured: T/C

Cc1c(O)/c(=C\O)c2nc3c(=O)ccc(C(=O)NCCN(C)C)c3[nH]c2c1=O
inactive: endpoint: median survival time, dose: 12.5 mg/kg/injection, schedule: Q01DX005 (ip), vehicle: water 103 % of control and 110 % of control | endpoint: median survival time, dose: 18.0 mg/kg/injection, schedule: Q01DX005 (ip), vehicle: water 115 % of control | endpoint: median survival time, dose: 25.0 mg/kg/injection, schedule: Q01DX005 (ip), vehicle: water 114 % of control and 105 % of control

N#CCc1ccc(Cl)c(Cl)c1
inactive: endpoint: mean survival time, dose: 25.0 mg/kg/injection, schedule: Q01DX009 (ip), vehicle: saline with Tween-80 102 % of control | endpoint: mean survival time, dose: 25.0 mg/kg/injection, schedule: Q04DX003 (ip), vehicle: saline with Tween-80 111 % of control | endpoint: mean survival time, dose: 50.0 mg/kg/injection, schedule: Q01DX009 (ip), vehicle: saline with Tween-80 100 % of control | endpoint: mean survival time, dose: 50.0 mg/kg/injection, schedule: Q04DX003 (ip), vehicle: saline with Tween-80 94 % of control | [1] 102 % of control

CC1OC(O)C(O)C(O)C1O (configuration not stated)
inactive: [2] 102 % of control | [3] 100 % of control | [4] 100 % of control

COCCCNC(=O)C1=CCCN(C)C1
inactive: endpoint: mean survival time, dose: 100.0 mg/kg/injection, schedule: Q04DX003 (ip), vehicle: saline 95 % of control | endpoint: mean survival time, dose: 200.0 mg/kg/injection, schedule: Q04DX003 (ip), vehicle: saline 96 % of control | endpoint: mean survival time, dose: 400.0 mg/kg/injection, schedule: Q04DX003 (ip), vehicle: saline 94 % of control

COc1ccc(C2C3C=CC(C3)C2C(=O)O)cc1 (configuration not stated)
inactive: [5] 96 % of control | [1] 106 % of control | [6] 96 % of control | [7] 103 % of control | [8] 103 % of control | [9] 95 % of control

O=P1(C(Cl)Cl)OCCCCO1
inactive: [2] 102 % of control | [3] 102 % of control | [4] 105 % of control

CC1=C(O)C(=O)OC1c1ccc(C)cc1 (configuration not stated)
inactive: endpoint: mean survival time, dose: 12.5 mg/kg/injection, schedule: Q01DX009 (ip), vehicle: other 101 % of control | endpoint: mean survival time, dose: 25.0 mg/kg/injection, schedule: Q01DX009 (ip), vehicle: other 98 % of control | endpoint: mean survival time, dose: 50.0 mg/kg/injection, schedule: Q01DX009 (ip), vehicle: other 95 % of control | endpoint: mean survival time, dose: 100.0 mg/kg/injection, schedule: Q01DX009 (ip), vehicle: other 98 % of control | endpoint: mean survival time, dose: 200.0 mg/kg/injection, schedule: Q01DX009 (ip), vehicle: other 104 % of control

Nc1cccc2scnc12 (tested in a mixture with another compound)
inactive: [1] 104 % of control | [7] 98 % of control | [9] 95 % of control

CN(CN1C(=O)CCC1=O)CN1C(=O)CCC1=O
inactive: endpoint: median survival time, dose: 50.0 mg/kg/injection, schedule: Q01DX005 (ip), vehicle: saline 105 % of control | endpoint: median survival time, dose: 100.0 mg/kg/injection, schedule: Q01DX005 (ip), vehicle: saline 113 % of control | endpoint: median survival time, dose: 200.0 mg/kg/injection, schedule: Q01DX005 (ip), vehicle: saline 121 % of control | endpoint: median survival time, dose: 400.0 mg/kg/injection, schedule: Q01DX005 (ip), vehicle: saline 121 % of control

CO[C@@]12[C@@H]3N[C@@H]3CN1c1c(O)c(C)c(N=C3N=NC(=S)S3)c(O)c1[C@@H]2COC(N)=O
inactive: endpoint: mean survival time, dose: 1.5 mg/kg/injection, schedule: Q01DX001 (ip), vehicle: distilled water + Tween-80 98 % of control | endpoint: mean survival time, dose: 3.0 mg/kg/injection, schedule: Q01DX001 (ip), vehicle: distilled water + Tween-80 98 % of control | endpoint: mean survival time, dose: 6.0 mg/kg/injection, schedule: Q01DX001 (ip), vehicle: distilled water + Tween-80 98 % of control | endpoint: mean survival time, dose: 12.0 mg/kg/injection, schedule: Q01DX001 (ip), vehicle: distilled water + Tween-80 102 % of control | endpoint: mean survival time, dose: 24.0 mg/kg/injection, schedule: Q01DX001 (ip), vehicle: distilled water + Tween-80 110 % of control | endpoint: mean survival time, dose: 48.0 mg/kg/injection, schedule: Q01DX001 (ip), vehicle: saline with Tween-80 100 % of control | endpoint: mean survival time, dose: 96.0 mg/kg/injection, schedule: Q01DX001 (ip), vehicle: saline with Tween-80 110 % of control

O/N=C1/CCCC/C1=C/c1ccc(Cl)cc1
inactive: endpoint: mean survival time, dose: 100.0 mg/kg/injection, schedule: Q04DX003 (ip), vehicle: Klucel (hydroxypropylcellulose) (HPC) 98 % of control | endpoint: mean survival time, dose: 200.0 mg/kg/injection, schedule: Q04DX003 (ip), vehicle: Klucel (hydroxypropylcellulose) (HPC) 100 % of control | endpoint: mean survival time, dose: 400.0 mg/kg/injection, schedule: Q04DX003 (ip), vehicle: Klucel (hydroxypropylcellulose) (HPC) 100 % of control

COC(=O)Nc1ccc(OS(=O)(=O)N(C)C)cc1
inactive: [1] 103 % of control | [7] 98 % of control | [9] 103 % of control

CNC(=O)NNC(=O)c1ccccc1Cl
inactive: [5] 88 % of control | [6] 108 % of control | [8] 98 % of control

O=C1CC23CCCN2CCc2cc4c(cc2C3=C1O)OCO4 (configuration not stated)
inactive: endpoint: mean survival time, dose: 1.56 mg/kg/injection, schedule: Q01DX009 (ip), vehicle: Klucel (hydroxypropylcellulose) (HPC) 102 % of control | endpoint: mean survival time, dose: 3.13 mg/kg/injection, schedule: Q01DX009 (ip), vehicle: Klucel (hydroxypropylcellulose) (HPC) 101 % of control | endpoint: mean survival time, dose: 6.25 mg/kg/injection, schedule: Q01DX009 (ip), vehicle: Klucel (hydroxypropylcellulose) (HPC) 104 % of control | endpoint: mean survival time, dose: 12.5 mg/kg/injection, schedule: Q01DX009 (ip), vehicle: Klucel (hydroxypropylcellulose) (HPC) 102 % of control | endpoint: mean survival time, dose: 25.0 mg/kg/injection, schedule: Q01DX009 (ip), vehicle: Klucel (hydroxypropylcellulose) (HPC) 95 % of control

Cc1ccc(N=C2C=CC(=O)O2)cc1
inactive: [1] 98 % of control | [7] 104 % of control | [9] 101 % of control

O=CC(=O)c1ccc(O)cc1
inactive: endpoint: mean survival time, dose: 6.25 mg/kg/injection, schedule: Q01DX009 (ip), vehicle: saline 101 % of control | endpoint: mean survival time, dose: 12.5 mg/kg/injection, schedule: Q01DX009 (ip), vehicle: saline 97 % of control | endpoint: mean survival time, dose: 25.0 mg/kg/injection, schedule: Q01DX009 (ip), vehicle: saline 100 % of control | endpoint: mean survival time, dose: 50.0 mg/kg/injection, schedule: Q01DX009 (ip), vehicle: saline 103 % of control | endpoint: mean survival time, dose: 100.0 mg/kg/injection, schedule: Q01DX009 (ip), vehicle: saline 108 % of control

CCOP1(=S)Nc2cc(C)c(C)cc2N1
inactive: endpoint: mean survival time, dose: 25.0 mg/kg/injection, schedule: Q04DX002 (ip), vehicle: saline with Tween-80 98 % of control | [10] 87 % of control | [11] 87 % of control | [12] 87 % of control

CC(C)(C)C1CC[N-]CC1.CC(C)(C)C1CC[N-]CC1.O=[N+]([O-])O.O=[N+]([O-])O.[Pt+2]
inactive: [10] 98 % of control | [11] 98 % of control | [12] 95 % of control

O=C(NC(=O)c1cn(C2OC(CO)C(O)C2O)nn1)Nc1ccc(Cl)cc1 (configuration not stated)
inactive: endpoint: mean survival time, dose: 12.5 mg/kg/injection, schedule: Q01DX005 (ip), vehicle: other 93 % of control | endpoint: mean survival time, dose: 50.0 mg/kg/injection, schedule: Q01DX005 (ip), vehicle: other 90 % of control

CCCCCCCCCCCCOCCC(=O)O
inactive: endpoint: mean survival time, dose: 75.0 mg/kg/injection, schedule: Q04DX003 (ip), vehicle: saline 97 % of control | endpoint: mean survival time, dose: 150.0 mg/kg/injection, schedule: Q04DX003 (ip), vehicle: saline 103 % of control | endpoint: mean survival time, dose: 300.0 mg/kg/injection, schedule: Q04DX003 (ip), vehicle: saline 95 % of control

CC(Oc1ccccc1)C(=O)c1ccccc1 (configuration not stated)
inactive: [5] 93 % of control | [1] 97 % of control | [6] 93 % of control | [7] 100 % of control | [8] 96 % of control | [9] 90 % of control
